Reference: US20120094989A1, “5-HT RECEPTOR MODULATING COMPOUNDS” (priority 2009, published 2012)
Values joined by “and” are separate entries in the source; they are usually repeats but may differ in a detail not shown here. Identical values can stand only once. Like-named read-outs stand apart in the source and are kept apart here.

How the values were obtained:
[1] = biological target: T1, human 5-HT4(b) receptor (Homo sapiens, UniProt Q13639); assay: Radioligand binding assay with [3H]GR113808
Experimental: (§1) The development of HEK293 cell lines stably expressing human 5-HT4(b) receptors was described and published previously (Bach et al. 2001). Briefly, HEK293 cells (ATCC) were grown in Dulbecco's modified Eagle's medium with 10% foetal calf serum and penicillin (100 U/ml) and streptomycin (100 μg/ml). Cells were transfected with plasmid DNA (pcDNA3.1(−) containing human 5-HT4(b) receptor cDNA) using SuperFect Transfection Reagent (QIAGEN) according to the manufacturers protocol. Serial dilutions of transfected cells were plated in 96 well plates containing G418 (geneticin; Amersham) at 0.4 mg/ml, and isolated single colonies of cells transformed to the neomycin-resistant phenotype were expanded and tested for expression of serotonin receptors by measuring serotonin-stimulated adenylyl cyclase activity (Themmen et al. 1993). Transformed cells were always grown in the presence of G418 (0.4 mg/ml). For binding and adenylyl cyclase analysis, stable cell lines were grown and maintained in UltraCULTURE™ general purpose serum-free medium (BioWhittaker, Walkersville, Md., USA), supplemented with L-glutamine (2 mM), penicillin (100 U/ml) and streptomycin (100 μg/ml).
(§2) Membranes were prepared from stably transfected HEK293 cells cultured on 150-mm cell culture dishes and grown to 80% confluence in serum-free medium (UltraCULTURE™, BioWhittaker) with penicillin (10 U/ml) and 2 mM L-Glutamine (BioWhittaker). Cells were washed twice with 10 ml ice-cold HBSS, scraped with a rubber policeman in 10 ml ice-cold HBSS and collected by centrifugation at 800 g for 5 min at 4° C. The cell pellet was resuspended in 1 ml/dish ice-cold STE buffer (27% (w/v) sucrose, 50 mM Tris-HCl, pH 7.5 at 20° C., 5 mM EDTA) and homogenized with an Ultra-Turrax (IKA) homogenizer, using five 10 s bursts with 30 s cooling in ice-water between bursts. To remove nuclei, the homogenate was centrifuged at 300 g for 5 min at 4° C. and the supernatant was further centrifuged at 17000 g for 20 min at 4° C. and the supernatant removed. The crude membrane pellet was resuspended with ten strokes of tight fitting pestle B in a Dounce glass-glass homogenizer in 1 ml/dish ice-cold TE (50 mM Tris-HCl, pH 7.5 at RT, 5 mM EDTA). This procedure was repeated twice and the resuspended membranes were finally aliquotted and flash frozen in liquid nitrogen and stored at −70° C. until use.
Binding assays were performed on membranes of HEK293 cells stably expressing the human 5-HT4(b) receptor (refs.) in 96-well, round-bottom microtiter plates with total reaction volumes of 50-200 μl, containing the indicated concentration of [^3H]GR113808 with or without competing unlabelled ligand in a binding buffer containing 50 mM Tris-HCl (pH 7.5 at RT), 1 mM EDTA, 5 mM EGTA, 2 mM MgCl2, 1 mM ascorbate, 0.1% BSA and 100 μM GTP. The plates were incubated at 23 EC for 60 min and harvested onto UniFilter™-96 GF/C™ (Packard Instrument Co., Meriden, Conn., USA), presoaked in 0.3% polyethyleneimine (Sigma), using a Packard FilterMate Universal Harvester with 96-well format, and washed 4-6 times with approximately 0.25 ml/well of ice-cold buffer, containing 50 mM Tris-HCl (pH 7.0 at RT) and 2 mM MgCl2. The filters were dried and counted at approximately 40% efficiency in a Top-Count liquid scintillation counter (Packard), using 20 μl per filter well of Micro-Scint liquid scintillation cocktail (Packard).
(§3) Binding and adenylyl cyclase data were analyzed by non-linear regression using Microsoft Excel with the Solver add-in, using the below equations.
Competitive binding assays—The data were fit to the equation
where a is non-specific binding, b is total binding in the absence of competitor, c is IC50, and x is the concentration of competitor. Where relevant, relative binding data were obtained by recalculating the data using a=0 and b=100.
(§4) IC50 values from competitive binding assays were converted to Kb values by the method of Cheng and Prusoff (1973).

[2] = biological target: T1, human 5-HT4(b) receptor; assay: Adenylyl cyclase assay (antagonist pKb, agonist/antagonist properties); format: biochemical; conditions: membranes of HEK293 cells stably expressing human 5-HT4(b) receptor; for Kb: hyphen-separated values taken as single determinations
Experimental: as §1, §2
Adenylyl cyclase activity was measured in membranes of HEK293 cells stably expressing the human 5-HT4(b) receptor (refs.) by determining conversion of [α-^32P]ATP to [^32P]cAMP in membranes prepared in STE by homogenization of cells grown and washed as described above in a Dounce glass-glass homogenizer by 10 strokes with the tight-fitting pestle. Membranes were kept on ice prior to assay. Adenylyl cyclase activities were measured in 10-μl aliquots in a final volume of 50 μl in the presence of 0.1 mM [α-^32P]ATP (1-2×10^6 cpm/assay), 4 mM MgCl2, 20 μM GTP, 1 mM EDTA, 1 mM [^3H]cAMP (ca. 10,000 cpm/assay), […] 3-isobutyl-1-methyl xanthine (IBMX; Sigma), a nucleoside triphosphate regenerating system consisting of 20 mM creatine phosphate (Sigma), 0.2 mg/ml creatine phosphokinase (Sigma) and 40 U/ml myokinase (Sigma) and additives described in the text and figures. When forskolin (Calbiochem, La Jolla, Calif., USA) was used the concentration was 100 μM. Incubations were for 20 min at 32° C. Cyclic AMP formed was quantified by the double column chromatography system of Salomon et al. (1974) as modified by Bockaert et al. (1976).
as §3
Activation of adenylyl cyclase—The data were fit to the equation
where a is basal adenylyl cyclase activity, b is maximal adenylyl cyclase activity stimulated by the agonist, c is EC50, and x is the concentration of agonist.
as §4

[3] = biological target: T2, hERG ion channel (Homo sapiens, UniProt Q12809); assay: hERG tail current, patch-clamp in HEK-293 cells stably transfected with hERG; format: cell-based
T2 construct: expressed in transfected cells; host or cells: HEK-293, stably transfected
Experimental: The purpose of this study was to assess the effects of the above compounds on hERG (human ether-a-go-go related gene) tail current by examining the acute effect of the test compounds on the hERG ion channel in an appropriate in vitro test system. The human embryonic kidney cell (HEK-293), which has been stably transfected with hERG ion channel cDNA, is a preparation that is considered suitable for this purpose.
Four concentrations of each test compound were tested in a screening assay to determine the liability to block hERG channels. Using the patch-clamp technique, peak hERG tail current amplitude was measured prior to and following exposure to the compounds at the following nominal concentrations:
for approximately 7 to 32 minutes (n=3 cells for each concentration). In addition, peak hERG tail current amplitude was measured in a separate group of 3 cells, prior to and following exposure to vehicle (0.1% DMSO) for time-matched vehicle data correction. Terfenadine (at the submaximally effective concentration of 50 nM, n=3), a known inhibitor of the IKr current, was used as a positive control compound.
The test compound data were corrected for the mean effect of vehicle and rundown and the concentration-response data were plotted and fitted with a sigmoidal function, from which the IC50 values for each compound were calculated.

[4] = peak hERG tail current, HEK-293, corrected for vehicle and rundown, sigmoidal fit, read-out: hERG IC50
[5] = [3H]GR113808 competition, membranes of HEK293 cells stably expressing human 5-HT4(b) receptor, hyphen-separated values taken as single determinations, read-out: Binding affinity (pKd value) (converted)
[6] = read-out: Antagonist pKb value (converted)

T2 sequence (Q12809 whole entry): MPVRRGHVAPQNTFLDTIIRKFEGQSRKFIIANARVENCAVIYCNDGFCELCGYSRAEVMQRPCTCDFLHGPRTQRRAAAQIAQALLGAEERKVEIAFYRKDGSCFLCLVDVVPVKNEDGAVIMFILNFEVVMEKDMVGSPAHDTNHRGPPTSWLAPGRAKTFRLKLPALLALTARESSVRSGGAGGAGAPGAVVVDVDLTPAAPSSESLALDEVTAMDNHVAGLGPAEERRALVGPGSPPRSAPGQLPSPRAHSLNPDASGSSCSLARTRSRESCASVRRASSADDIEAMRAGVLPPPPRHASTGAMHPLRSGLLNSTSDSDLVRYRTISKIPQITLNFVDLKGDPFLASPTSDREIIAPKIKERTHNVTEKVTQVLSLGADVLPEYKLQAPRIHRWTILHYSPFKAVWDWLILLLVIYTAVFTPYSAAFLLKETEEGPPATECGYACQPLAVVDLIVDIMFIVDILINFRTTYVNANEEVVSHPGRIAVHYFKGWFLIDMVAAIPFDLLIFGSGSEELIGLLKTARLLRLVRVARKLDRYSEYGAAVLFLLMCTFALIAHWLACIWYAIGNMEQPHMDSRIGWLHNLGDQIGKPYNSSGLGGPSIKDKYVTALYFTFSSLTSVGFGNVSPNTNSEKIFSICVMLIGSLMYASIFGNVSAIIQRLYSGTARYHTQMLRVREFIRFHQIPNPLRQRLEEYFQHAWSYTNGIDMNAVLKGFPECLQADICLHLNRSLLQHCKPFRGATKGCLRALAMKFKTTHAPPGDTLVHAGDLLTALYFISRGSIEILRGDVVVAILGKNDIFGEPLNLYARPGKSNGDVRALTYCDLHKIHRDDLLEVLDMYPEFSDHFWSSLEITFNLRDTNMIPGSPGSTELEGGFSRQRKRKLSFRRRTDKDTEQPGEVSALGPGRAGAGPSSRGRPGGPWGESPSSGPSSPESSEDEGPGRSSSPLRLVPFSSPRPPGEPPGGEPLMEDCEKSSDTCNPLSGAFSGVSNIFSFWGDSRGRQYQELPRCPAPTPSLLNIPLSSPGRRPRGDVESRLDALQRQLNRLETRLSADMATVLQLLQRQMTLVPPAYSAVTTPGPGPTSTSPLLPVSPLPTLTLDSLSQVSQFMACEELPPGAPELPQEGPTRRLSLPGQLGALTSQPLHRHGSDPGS
T1 sequence (Q13639 whole entry): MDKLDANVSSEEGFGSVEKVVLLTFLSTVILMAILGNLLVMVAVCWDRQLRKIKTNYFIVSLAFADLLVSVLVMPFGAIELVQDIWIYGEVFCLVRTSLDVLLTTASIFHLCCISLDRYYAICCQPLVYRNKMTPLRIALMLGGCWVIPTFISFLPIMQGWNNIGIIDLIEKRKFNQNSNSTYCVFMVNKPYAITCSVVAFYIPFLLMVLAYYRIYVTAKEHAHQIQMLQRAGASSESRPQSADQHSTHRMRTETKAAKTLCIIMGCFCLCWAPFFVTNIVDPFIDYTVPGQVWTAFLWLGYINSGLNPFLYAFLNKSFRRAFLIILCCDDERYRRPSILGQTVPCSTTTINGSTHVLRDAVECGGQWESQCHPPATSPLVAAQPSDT

Compound	Kd [1]	Kb ([2]; Antagonist pKb value)	Agonist/Antagonist properties [2]	other results
O=C(O)c1ccccc1-c1ccc(CN2CCC(COC(=O)c3c4n(c5ccccc35)CCCO4)CC2)cc1 [Compound 8]	0.0363 nM and 0.0776 nM	0.0631 nM and 0.331 nM		IC50 [3, 4]: 47500 nM
COc1cc(N)c(Cl)cc1C(=O)NCC1CCN(Cc2ccc(-c3ccccc3C(=O)O)cc2)CC1 [Compound 18]				Kd [1, 5]: 174 nM and 126 nM
O=C(OCC1CCN(C2C3CC4C(C3C(=O)O)C42)CC1)c1c2n(c3ccccc13)CCCO2 (stereo not shown) [Compound 23]	1.51 nM	3.63 nM	Antagonist	
Cn1cc(C(=O)OCC2CCN(CCNS(C)(=O)=O)CC2)c2ccccc21 [GR113808, 1-methyl-1H-indole-3-carboxylic acid, [1-[2-[(methylsulfonyl)amino]ethyl]-4-piperidinyl]methyl ester, reference compound]	0.112 nM and 0.0389 nM	0.0891 nM	Antagonist	
COC(=O)c1ccccc1-c1ccc(CN2CCC(CNC(=O)c3cc(Cl)c(N)cc3OC)CC2)cc1 [Compound 17]				Kd [1, 5]: 3.72 nM and 5.01 nM
COc1cc(N)c(Cl)cc1C(=O)NCC1CCN(Cc2ccc(-c3ccccc3-c3nn[nH]n3)cc2)CC1 [Compound 20]				Kd [1, 5]: 18.6 nM and 27.5 nM
O=C(OCC1CCN(C2CCC(C(=O)O)C2)CC1)c1c2n(c3ccccc13)CCCO2 (stereo not shown) [Compound 24]	1.15 nM		Antagonist	Kb [2, 6]: 2.51 nM; IC50 [3, 4]: 209000 nM
COC(=O)c1ccccc1-c1ccc(CN2CCC(COC(=O)c3c4n(c5ccccc35)CCCO4)CC2)cc1 [Compound 7]	0.00251 nM	0.0132 nM and 0.0479 nM		IC50 [3]: 131 nM
CC(C(=O)O)c1ccc(CN2CCC(COC(=O)c3c4n(c5ccccc35)CCCO4)CC2)cc1 (stereo not shown) [Compound 27]	0.513 nM	1.62 nM		IC50 [3]: 25000 nM
O=C(OCC1CCN(C2CCCC(C(=O)O)C2)CC1)c1c2n(c3ccccc13)CCCO2 (stereo not shown) [Compound 25]	1.2 nM		Antagonist	Kb [2, 6]: 2.51 nM
O=C(OCC1CCN(Cc2ccc(-c3ccccc3-c3nn[nH]n3)cc2)CC1)c1c2n(c3ccccc13)CCCO2 [Compound 4]		0.00447 nM		
CCCCN1CCC(CNC(=O)c2c3n(c4ccccc24)CCCO3)CC1 [SB207266, reference compound]			Antagonist	Kd [1, 5]: 0.263 nM and 0.209 nM and 0.166 nM and 0.0355 nM and 0.0407 nM; Kb [2, 6]: 0.0537 nM and 0.0372 nM and 0.269 nM
O=C(NCC1CCN(Cc2ccc(-c3ccccc3-c3nn[nH]n3)cc2)CC1)c1c2n(c3ccccc13)CCCO2 [Compound 2]	3.89 nM and 4.17 nM and 4.37 nM		Antagonist	IC50 [3, 4]: 27500 nM
CC(C)(C(=O)O)c1ccc(CN2CCC(COC(=O)c3c4n(c5ccccc35)CCCO4)CC2)cc1 [Compound 29]	0.355 nM			Kb [2, 6]: 1.66 nM
